Values of other authors in patent US20200206183A1, “SYSTEMS, METHODS, AND FORMULATIONS FOR TREATING CANCER” (Research Cancer Institute of America, priority 2011, published 2020).

Key:
[1] = test system: patients who had cancer deemed no longer treatable by conventional methods
tyrosine kinase = conditions: measured in 11 subjects

Molecule	Toxicity (patients; oral doses up to 36 grams per day)	Patients with stable disease (patients; stable disease for more than 6 months while on the drug, one study)	Dose concluded for further study ([1]; intravenous)	Suppression as defined by the radiological criteria of WHO ([1]; up to 1700 mg/m2 intravenous for about 3 weeks, 50 patients)	Patients with sustained decreases in unique cancer markers ([1]; up to 1700 mg/m2 intravenous, 50 patients)	Subjects with a decrease in tyrosine kinase levels (tyrosine kinase)
sodium phenylbutyrate [SPB]	minimal toxicity	25%	–	–	–	–
O=c1c(O)c(-c2ccc(O)c(O)c2)oc2cc(O)cc(O)c12 [quercetin]	–	–	≤ 1400 mg/m2	None of the patients achieved suppression	two showed sustained decreases	9 subjects
